Experimental data from patent EP0019739A1, “2-Aminoalkyl-5-pyridinoles, process for their preparation and pharmaceutical preparations containing them” (CIBA-GEIGY AG, priority 1979, dated 1980).

Assay: Pharmacological activity, test not specified
Conditions: compared with the racemic dihydrochloride (starting material of Example 2) and the levorotatory salt

With `CC(C)NC(C)Cc1ccc(O)cn1.Cl.Cl` (stereo not shown) [rechtsdrehende Antipode, 2-(2-Isopropylaminopropyl)-5-pyridinol-dihydrochlorid] the pharmakologisch aktiv was “weniger aktiv”.
